The record followed here is paper PMC7076013 (Scientific Reports, 2020).

In test [1] the test system is B16F10, mouse metastatic melanoma. The test is described as follows: CV (crystal violet) cell viability, B16F10. Format: cell-based. The conditions noted are these: for IC50: 48 h; for Selectivity index B16F10: IC50 macrophages / IC50 cancer. The protocol:
(§1) Both melanoma and colon cancer are tumor types tightly connected with inflammation, while the expression of COX-2 in the selected cell lines was highly variable. Since a lot of discrepancies were found in the literature concerning the expression of this enzyme[5],[48]–[53], both COX-1 and COX-2 expression was analyzed by Western blot. […] The cells were treated with a wide range of doses of 4a–c, 5, and 6 for 48 h and cell viability was determined by MTT (3-(4,5-dimethylthiazol-2-yl)-2,5-diphenyltetrazolium bromide) and CV (crystal violet) assays. The obtained IC50 values were similar for both assays (Table 1).
Reagents were obtained from Sigma (St. Louis, MO) unless indicated otherwise. Annexin V - FITC (AnnV) was acquired from Biotium (Hayward, CA) and Apostat from R&D (R&D S ystems, Minneapolis, MN USA). […] After being detached b y tr ypsinization, cells were seeded in defined number as follows: 2.5 × 10^3 cells/well in 96-well plates for viability assessment and 2 × 10^4 cells/well in 24-well plates for flow cytometry. Peritoneal resident […]
(§2) for Biolo gical Research “Siniša Stanković” b y peritoneal lav age with an ice- cold phosphate buffer solution (PBS). The handling of animals and protocol for obtaining cells is in agreement with the rules of the European Union and approved by the Institutional Animal Care and Use Committee at IBISS (02- 09/1 6). Cells were counted and seeded in 96-well plates and incubat ed overnight. Before treatment, non- adherent cells were removed. Compounds 4a- c, 5 and 6 were dissolved in DMSO and stored at −20 °C for a m onth. Working solutions were freshl y prepared in 10% FCS-RPMI-1640. Controls were treated with culture medium containing the equivalent […]
(§3) 3.2. Cell viability tests.
(§4) The number of viable cel ls in culture was estimated by the MTT (3-(4,5- dimethylthiazol- 2-yl ) - 2,5- diphenyltetrazolium bromide) and CV (crystal violet) tests. Cells were incubated in the presence of compounds 4a- c, 5 and 6 for 48 h, then the viability was measured as described.4 […]
(§5) The results were ex pressed as a p er centage of a v alue obtained for the untr eated control cells that was arbitrarily set to be 100%. A non- linear regression analysis of obtained results was done b y using Gr aphPad Prism software to calculat e IC50 values. […]

The test system of test [2] is SW620, human colon carcinoma. The test is described as follows: CV (crystal violet) cell viability, SW620. It is filed as cell-based. The note with it: for IC50: 48 h; for Selectivity index SW620: IC50 macrophages / IC50 cancer. The protocol:
as §1
Reagents were obtained from Sigma (St. Louis, MO) unless indicated otherwise. […]
S ystems, Minneapolis, MN USA). […] After being detached b y tr ypsinization, cells were seeded in defined number as follows: 2.5 × 10^3 cells/well in 96-well plates for viability assessment and 2 × 10^4 cells/well in 24-well plates for flow cytometry. Peritoneal resident […]
as §2, §3, §4, §5

Test [3] deals with T1, ovine COX-1 (Ovis aries, UniProt P05979).
T1 construct: purchased Cayman Chemical Item No. 700100 (assay kit)
T1 sequence (P05979 25-600): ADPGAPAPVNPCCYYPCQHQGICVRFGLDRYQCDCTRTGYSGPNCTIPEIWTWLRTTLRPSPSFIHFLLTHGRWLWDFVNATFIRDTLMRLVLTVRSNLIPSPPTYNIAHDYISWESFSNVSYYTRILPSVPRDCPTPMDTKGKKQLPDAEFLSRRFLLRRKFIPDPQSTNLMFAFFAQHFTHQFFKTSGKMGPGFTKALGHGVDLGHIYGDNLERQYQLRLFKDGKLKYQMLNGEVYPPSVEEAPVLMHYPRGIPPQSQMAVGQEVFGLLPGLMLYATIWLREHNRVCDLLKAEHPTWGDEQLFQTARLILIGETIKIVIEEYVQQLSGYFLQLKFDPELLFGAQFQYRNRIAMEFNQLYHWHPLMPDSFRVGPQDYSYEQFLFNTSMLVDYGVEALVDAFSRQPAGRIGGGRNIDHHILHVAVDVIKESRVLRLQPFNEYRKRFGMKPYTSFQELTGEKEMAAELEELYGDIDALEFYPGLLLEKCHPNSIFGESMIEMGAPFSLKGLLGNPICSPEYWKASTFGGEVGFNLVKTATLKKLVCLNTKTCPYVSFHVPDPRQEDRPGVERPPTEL
The test is described as follows: COX Fluorescent Inhibitor Screening Assay, COX-1. The conditions noted are these: ovine COX-1, Cayman kit 700100. It is filed as biochemical. The procedure:
(§6) The synthesized compounds were tested in vitro for their potential to inhibit ovine COX-1 and human recombinant COX-2.
(§7) *All compounds were measured with the Cytation 5 plate reader and the "COX Fluorescent Inhibitor […]
(§8) chemi cals, USA) " according to the manufacturer's
(§9) Error bars indicate standard error mean (SEM) obtained from two measurements at each concentration.
(§10) (1 picture or pasted object on this page, not shown here)

Test [4] has as its system B16, mouse solid melanoma. The test is described as follows: MTT cell viability, B16. The note with it: 48 h. It is filed as cell-based. The protocol: as §1
(§11) Reagents were obtained from Sigma (St. Louis, MO) unless indicated otherwise. Annexin V - FITC (AnnV) was acquired from Biotium (Hayward, CA) and Apostat from R&D (R&D S ystems, Minneapolis, MN USA). […] After being detached b y tr ypsinization, cells were seeded in defined number as follows: 2.5 × 10^3 cells/well in 96-well plates for viability assessment and 2 × 10^4 cells/well in 24-well plates for flow cytometry. […]
(§12) Committee at IBISS (02- 09/1 6). Cells were counted and seeded in 96-well plates and incubat ed overnight. Before treatment, non- adherent cells were removed. Compounds 4a- c, 5 and 6 were dissolved in DMSO and stored at −20 °C for a m onth. Working solutions were freshl y prepared in 10% FCS-RPMI-1640. Controls were treated with culture medium containing the equivalent […]
as §3, §4, §5

Test [5] concerns the target T2, human recombinant COX-2 (Homo sapiens, UniProt P35354).
T2 construct: purchased Cayman Chemical Item No. 700100 (assay kit)
T2 sequence (P35354 18-604): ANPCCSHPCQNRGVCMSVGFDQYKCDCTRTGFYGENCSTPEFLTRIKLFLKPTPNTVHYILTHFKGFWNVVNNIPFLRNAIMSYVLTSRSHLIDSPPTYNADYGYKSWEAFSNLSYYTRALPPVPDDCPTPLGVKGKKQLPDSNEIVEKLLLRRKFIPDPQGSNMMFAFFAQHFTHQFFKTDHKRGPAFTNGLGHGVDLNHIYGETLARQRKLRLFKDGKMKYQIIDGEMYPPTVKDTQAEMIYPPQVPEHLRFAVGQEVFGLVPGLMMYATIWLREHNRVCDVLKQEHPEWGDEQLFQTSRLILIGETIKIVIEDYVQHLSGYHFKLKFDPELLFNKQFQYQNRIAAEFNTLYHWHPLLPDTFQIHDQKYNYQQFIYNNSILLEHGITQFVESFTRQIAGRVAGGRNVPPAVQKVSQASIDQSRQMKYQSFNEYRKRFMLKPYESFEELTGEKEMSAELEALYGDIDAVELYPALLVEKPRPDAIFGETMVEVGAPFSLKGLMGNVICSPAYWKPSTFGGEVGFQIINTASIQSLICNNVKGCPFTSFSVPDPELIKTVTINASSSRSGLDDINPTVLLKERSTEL
The test is described as follows: COX Fluorescent Inhibitor Screening Assay, COX-2. The conditions noted are these: human recombinant COX-2, Cayman kit 700100. Format: biochemical. The procedure:
as §6, §7, §8, §9, §10

For test [6], the system named is CT26CL25, mouse colon carcinoma. The test is described as follows: MTT cell viability, CT26CL25. It is filed as cell-based. The conditions noted are these: 48 h. The procedure:
as §1, §11, §12, §3, §4, §5

On to “4-[4-(hydroxymethyl)phenyl]-3-(1,2-dicarba-closo-dodecaboranyl)furan-2(5H)-one [Compound 4c]”, for which the IC50 – broadly, the concentration that inhibits the measured activity by half – in test [1] was 26.5 ± 2.62 µM; in test [2] it was 44.4 ± 1.77 µM; in test [3], above 100 µM; in test [4], 26.1 ± 2.49 µM; in test [5], above 100 µM; in test [6], 28.4 ± 2.46 µM. In addition, in test [1], the “Selectivity index B16F10” value was 2.5. The “Selectivity index SW620” value in test [2] is on record as 1.5.
Regarding “4-phenyl-3-(1,2-dicarba-closo-dodecaboranyl)furan-2(5 H)-one [Compound 4a]”, the IC50 is 25.4 ± 2.41 µM in test [1]; 24.8 ± 0.35 µM in test [2]; above 100 µM in test [3]; 30.8 ± 2.81 µM in test [4]; above 100 µM in test [5]; 42.6 ± 3.17 µM in test [6]. The “Selectivity index B16F10” value in test [1] stood at 1.9. Moreover, the “Selectivity index SW620” value in test [2] is reported as 2.0.
For the substance “4-[4-(methylsulfonyl)phenyl]-3-(1,2-dicarba-closo-dodecaboranyl)furan-2(5H)-one [Compound 4b]”, the IC50 in test [1] is 26.6 ± 2.62 µM; in test [2] it was 21.8 ± 0.64 µM; in test [3] it was above 100 µM; in test [4], 18 ± 1.71 µM; in test [5] it was above 100 µM; in test [6] it was 38.1 ± 0.9 µM. The “Selectivity index B16F10” value in test [1] stood at 2.5. Besides, the “Selectivity index SW620” value in test [2] was 3.0.
Turning to “4-[4-(methylnitrooxy)phenyl]-3-(1,2-dicarba-closo-dodecaboranyl)furan-2(5 H)-one [Compound 5]”, the IC50 in test [1] is 7.65 ± 0.26 µM; in test [2], 10.8 ± 0.21 µM; in test [3] it was above 100 µM; in test [4], 10.1 ± 0.4 µM; in test [5], above 100 µM; in test [6], 31.4 ± 3.27 µM. In addition, the “Selectivity index B16F10” value in test [1] came out at 4.8. The “Selectivity index SW620” value in test [2] turned out to be 3.5.
For “R,S-7-(2-oxo-4-(4-sulfamoylphenyl)-2,5-dihydrofuran-3-yl)-7,8-dicarba-nido-dodeca-hydroundecaborate(–1) sodium [Compound 6]”, the IC50 in test [1] was above 50 µM; in test [2] it was above 50 µM; in test [3] it was above 100 µM; in test [4], above 50 µM; in test [5], 69.6 µM; in test [6], above 50 µM.
